# EP0341300B1, “STIMULATION OF STEM CELL GROWTH BY THE BRYOSTATINS” (priority 1987, dated 1989)
# “Also recorded” adds a separate entry of the source.
# Experiments:
# [1] = system: light-density, adherence-depleted normal human bone marrow cells; assay: Granulocyte-macrophage colony formation (CFU-GM) in agar culture; format: cell-based
# Description: For determining effective concentrations of bryostatins for granulocyte and macrophage colony formation, light density, adherence-depleted human bone marrow cells can be obtained. The cells can be suspended in a suitable medium, such as supplemented McCoy's 5A medium containing 0.3% agar and plated in 35 mm petri dishes as described in Pike et al, Journal of Cell Physiology, Vol. 76, pp. 77-83, 1970. For the bryostatins which have been tested and found to be effective, i.e., 1, 3, 8 and 9, maximum stimulatory concentrations are between about 10⁻⁷M and 10⁻¹⁰M.
# Granulocyte-macrophage colony-forming unit (CFU-GM) colonies were enumerated from light-density, adherence-depleted normal human bone marrow cells. Cells were suspended in supplemented McCoy's 5A medium containing 0.3% agar and plated in 35-mm Petri dishes as described in Pike et al, J. Cell Physiol., Vol. 76, pp. 77-83, 1970. Colonies were enumerated following incubation of bone marrow with cells with rHGM-CSF at 50 ng/ml (Genetics Institute) or bryostatin 1 (●) bryostatin 3(o), bryostatin 8(♢), bryostatin 9(+), or bryostatin 13 (▲) at the concentrations indicated. After 14 days of culture at 37°C in a humidified atmosphere containing 7.5% CO₂, colonies of greater or equal to 50 cells were scored. Representative results from one of several experiments are reported as the mean colony number from quadruplicate samples. SEM is within 10% of the mean number.
# [2] = system: multi-potential hematopoietic progenitors; assay: Continuous 7-day subcutaneous infusion by osmotic micropump in mice; format: in vivo, BDF₁ mice
# Protocol: A dose-response stimulatory effect on multi-potential hematopoietic progenitors was noted. The administration of 144 ug/kg/d (max. dose) increased CFU-S, CFU-GM and BFU-E compared to control animals infused with vehicle alone. CFU-S from spleen cells of treated animals were increased 2-fold (19 vs. 39 colonies per 10⁶ cells injected), while bone marrow CFU-S was not altered. Likewise, CFU-GM colonies from spleen cells were increased 3.6-fold (52 vs. 188 per 10⁶ cells injected), and increased 2-fold (73 vs. 150 per 10⁵ nuc. cells) in bone marrow.
# K562 target cells = assay: Activated neutrophil cytotoxicity, 51Cr release; format: cell-based, human; settings: for % specific lysis, 7.5 / % specific lysis, column 15 / % specific lysis, column 30: Bryostatin alone (no neutrophils)
# Protocol: Alternatively, neutrophil activation can be assayed using a cytoxicity assay. Purified neutrophils can be incubated at a density of about 3x10⁶ cells per ml with various concentrations of bryostatin. The cells can be washed and added to radiolabelled target cells. K562 tumor cells and ⁵¹ Cr-label can be used to measure cytoxicity. The target cells are preincubated with the radiolabelled substance to effect uptake of the radiolabel. The target cells can be mixed with the neutrophils at various effector to target cell ratios, such as between about 50:1 and 5:1, Release of label from the target cells can be measured either by assaying the supernatant or the cells after centrifugation. Of course, other methods known in the art, such as using other assays of immune regulatory cell cytotoxicity can be used. Bryostatin 1 has activity toward neutrophils at about 10⁻¹⁰ to 10⁻⁷M, with a maximum activation effect on neutrophil cytotoxicity of K562 target cells at a concentration of about 10⁻⁷M.
# Furthermore, activation of neutrophil cytotoxicity, as measured by killing of ⁵¹Cr-labeled K562 tumor target cells was also sitmulated by bryostatin 1 (Table 1). Neutrophils were purified as described above. Neutrophils were incubated at a density of 3 x 10⁶ cells per ml first with various concentrations of bryostatin 1 (0.1 uM to 0.1 nM), rhGM-CSF (50 ng/ml), or in medium alone for 2 hr. Following two washes, the cells were added to the ⁵¹Cr-labeled K562 target cells at effector/target cell ratios of 30:1, 15:1, or 7.5:1 as indicated. Control plates containing ⁵¹Cr-labeled K562 cells and either bryostatin or medium alone were evaluated to determine the spontaneous release of isotope. The plates containing the cells were centrifuged at 250 x g for 2 min and then incubated for 3 hrs at 37°C. One hundred microliters of the supernatant was harvested from each well, and the amount of radioactivity present was determined in a gamma scintillation counter. The maximum release of ⁵¹Cr was determined by assaying supernatant obtained from wells in which the cells were completely lysed with 6 M HCl.
# Assessment of neutrophil cytotoxicity induced by bryostatin 1. K562 cells were labeled with […] and adjusted to a concentration of 10³ cells per ml in RPMI 1640 medium. Activated neutrophil cytotoxicity was determined. The results are expressed as the percentage of specific isotope released at the indicated effector/target cell ratio calculated as follows: % specific lysis = [(mean cpm of sample - mean cpm spontaneously released)/(mean cpm maximal -mean cpm spontaneously released)] x 100 [formula] . [formula] Maximum induced cpm released as 7364 ± 149. The maximum mean % specific lysis from triplicate determinations from a representative experiment is shown.
# [3] = system: early BFU-E and late CFU-E human erythroid progenitors; assay: Erythroid progenitor assay, plasma-clot method with erythropoietin; format: cell-based; settings: plasma clots, optimal erythropoietin
# Description: Amounts of bryostatin which are effective for stimulating hematopoiesis or neutrophil and other immune regulatory cell activation, can be determined using any of the assays known in the art. For example, early and late erythrocyte progenitors can be enumerated using the plasma clot method described in McLeod et al, Blood, Vol. 44, p. 517, 1974. Stimulation of such erythrocyte progenitors requires the presence of erythropoietin.
# Assays for both early (BFU-E) and late (CFU-E) progenitors were enumerated as described in McLeod et al, Blood, Vol. 44, p. 517 (1974) using the plasma-clot method and optimal concentrations of erythropoietin. Bryostatin 1 stimulated both early BFU-E and late CFU-E human erythroid progenitors growth in plasma clots. The maximal stimulatory concentration was between 1 and 10 pM, with an inhibitory effect noted at concentrations above 1 nM.
# [4] = system: Normal human peripheral blood neutrophils; assay: Neutrophil chemiluminescence with luminol; format: cell-based; settings: 15 min incubation, then 10 uM luminol; rhGM-CSF at 50 ng/ml
# Description: To determine the effective amount of bryostatin for neutrophil activation, normal human peripheral blood neutrophil cells can be purified on a density gradient such as a Ficoll gradient. Other immune regulatory cells, such as T-lymphocytes and macrophages can be isolated by standard and known techniques. The neutrophils can be suspended in Dulbecco's phosphate-buffered saline supplemented with calcium and magnesium. One way to monitor neutrophil activation is to observe chemiluminescence. The neutrophils can be incubated for about fifteen minutes with the bryostatin. Then luminol (5-amino-2-3-dihydro-1, 4-phthalazinedione) can be added to a concentration of about 10 uM. Chemiluminescence can be measured in a luminometer as described in Allen et al, Biochemistry and Biophysics Research Communications, Vol. 69, pp. […], 1976.
# Normal human peripheral blood neutrophils were highly purified on a double Ficoll density gradient and suspended in Dulbecco's phosphate-buffered saline supplemented with Ca²⁺ and Mg²⁺. First, substances to be tested were incubated with the neutrophils for 15 min. At this point 10 uM luminol (5-amino-2, 3-dihydro-1, 4-phtyalazinedione) was added to each sample. The generation of chemiluminescence was measured in a luminometer at 1.25 min intervals for up to 20 min.
# normal human bone marrow = assay: Clone transfer assay (growth of transferred clones in secondary plates); format: cell-based; settings: primary culture 10 nM bryostatin 1 for 4 days; secondary plates bryostatin 1 10 nM or rhGM-CSF 50 ng/ml, 10 further days
# Protocol: Assays were performed essentially as described in Metcalf et al, Blood, Vol. 67, pp. 37-45, 1986. Briefly, cultures of normal human bone marrow were initiated in medium containing 10 nM bryostatin 1. Following 4 days of growth, clones of 4-8 cells were carefully removed using a glass pipette to avoid contamination by surrounding cells and transferred to secondary plates containing either rhGM-CSF (50 ng/ml) or bryostatin 1 (10 nM) as the source of CSF). After an additional 10 days of culture, the number of clones that had proliferated to form a colony of 40 cells or more was determined. Further growth was not observed in colonies transferred to plates containing no added CSF. (See Figure 3.)
# Each symbol (●) represents a colony. Its height in each column is proportional to the number of cells in that colony. The data directly above sections G of the column represent colonies composed entirely of granulocytic cells. The data above sections GM in the column represent colonies composed of both granulocytic and monocytic cells. No colonies in secondary plates were detected that were composed of macrophage-monocyte cells only. The numerator in the fraction at the top of each column represents the number of colonies that developed in the secondary plate, and the denominator represents the total number of clones transferred.
# [5] = system: P388 lymphocytic leukemia line; settings: reported by others (Pettit et al); test system not named; cited from earlier work
# [6] = neutrophils plus 10^-7M, 0.1 µM
# [7] = neutrophils plus 10^-8M, 0.01 µM
# [8] = neutrophils plus 10^-9M, 0.001 µM
# [9] = neutrophils plus 10^-10M, 0.0001 µM
compound,measurement,setting,value
"CCC/C=C/C=C/C(=O)O[C@H]1[C@H]2C=C3C[C@H]([C@@H](C)O)OC(=O)C[C@H](O)C[C@@H]4C[C@H](OC(C)=O)C(C)(C)[C@](O)(C[C@@H]5C/C(=C\C(=O)OC)C[C@H](/C=C/C(C)(C)[C@]1(OC(=O)C2)O3)O5)O4 [Bryostatin 3, bryostatin 3]",granulocyte-macrophage colony stimulating activity (in words),[1]; 14 days of culture,clearly less potent than bryostatin 1 or 8
bryostatin 8,lowest concentration at which colony stimulating activity was observed,[1]; 14 days of culture,10 pM
"CCCC(=O)O[C@H]1/C(=C/C(=O)OC)C[C@H]2C[C@H]([C@@H](C)O)OC(=O)C[C@H](O)C[C@@H]3C[C@H](OC(C)=O)C(C)(C)[C@](O)(C[C@@H]4C/C(=C/C(=O)OC)C[C@H](/C=C/C(C)(C)[C@]1(O)O2)O4)O3 [Bryostatin 9, bryostatin 9]",granulocyte-macrophage colony stimulating activity (in words),[1]; 14 days of culture,much less potent stimulator; also recorded: weaker stimulator; also recorded: only a weak stimulator
bryostatin 1,CFU-GM colonies from spleen cells,"[2]; 144 ug/kg/d, 7 days",188 per 10⁶ cells injected
same,CFU-GM colonies in bone marrow,"[2]; 144 ug/kg/d, 7 days",150 per 10⁵ nuc. cells
same,CFU-S from spleen cells,"[2]; 144 ug/kg/d, 7 days",39 colonies per 10⁶ cells injected
same,Erythroid BFU-E colonies from spleen cells,"[2]; 144 ug/kg/d, 7 days",58 per 10⁶ cells
same,bone marrow BFU-E progenitors,"[2]; 144 ug/kg/d, 7 days",no change
same,bone marrow CFU-S,"[2]; 144 ug/kg/d, 7 days",not altered
same,increase of CFU-GM colonies from spleen cells vs. vehicle control,"[2]; 144 ug/kg/d, 7 days",3.6 fold
same,increase of CFU-GM colonies in bone marrow vs. vehicle control,"[2]; 144 ug/kg/d, 7 days",2 fold
same,increase of CFU-S from spleen cells vs. vehicle control,"[2]; 144 ug/kg/d, 7 days",2 fold
same,increase of erythroid BFU-E colonies from spleen cells vs. vehicle control,"[2]; 144 ug/kg/d, 7 days",2 fold
same,"differential peripheral white blood cell, hemocrit, bone marrow cellularity or spleen weights",[2]; 7-day infusion,not accompanied by a significant change
same,major organ toxic effects,"[2]; infused for 7 days, any of the doses employed",no major organ toxic effects
same,concentration of maximum activation effect on neutrophil cytotoxicity of K562 target cells,K562 target cells,about 10⁻⁷ M
same,"% specific lysis, 7.5","K562 target cells; 10^-7M, 0.1 µM",-0.6%
same,"% specific lysis, column 15","K562 target cells; 10^-7M, 0.1 µM",0.3%
same,"% specific lysis, column 30","K562 target cells; 10^-7M, 0.1 µM",1.5%
same,"% specific lysis, 7.5","K562 target cells; 10^-8M, 0.01 µM",0.3%
same,"% specific lysis, column 15","K562 target cells; 10^-8M, 0.01 µM",1.0%
same,"% specific lysis, column 30","K562 target cells; 10^-8M, 0.01 µM",0.9%
same,% specific lysis at effector/target ratio 7.5,K562 target cells; [6],7.8%
same,% specific lysis at effector/target ratio 15,K562 target cells; [6],18.1%
same,% specific lysis at effector/target ratio 7.5,K562 target cells; [7],0%
same,% specific lysis at effector/target ratio 15,K562 target cells; [7],2.4%
same,% specific lysis at effector/target ratio 30,K562 target cells; [7],8.4%
same,% specific lysis at effector/target ratio 7.5,K562 target cells; [8],0%
same,% specific lysis at effector/target ratio 15,K562 target cells; [8],1.8%
same,% specific lysis at effector/target ratio 30,K562 target cells; [8],0.9%
same,% specific lysis at effector/target ratio 7.5,K562 target cells; [9],0.9%
same,% specific lysis at effector/target ratio 15,K562 target cells; [9],1.0%
same,% specific lysis at effector/target ratio 30,K562 target cells; [9],-0.8%
same,concentrations with an inhibitory effect on erythroid progenitors,[3],above 1 nM
same,activation of neutrophil chemiluminescence,[4],potent activator
same,colony morphology,[1]; 7 and 14 days of culture,primarily mixed granulocyte-macrophage and pure granulocyte colonies
same,lowest concentration at which colony stimulating activity was observed,[1]; 14 days of culture,10 pM
same,maximal effective concentration for stimulation of CFU-GM,"[1]; 14 days of culture, colonies of >= 50 cells scored",1 to 10 nM
same,growth of transferred clones on secondary plates,normal human bone marrow,produced full-size colonies
"CCCC(=O)O[C@H]1C[C@H]2C[C@@H](O)CC(=O)O[C@@H]([C@H](C)O)C[C@@H]3C/C(=C\C(=O)OC)C[C@@](O)(O3)C(C)(C)/C=C/[C@H]3C/C(=C\C(=O)OC)C[C@@H](C[C@](O)(O2)C1(C)C)O3 [Bryostatin 13, bryostatin 13]",activation of neutrophil chemiluminescence,[4],not
same,antineoplastic activity,[5],retain potent antineoplastic activity
same,granulocyte-macrophage colony stimulating activity (in words),[1]; 14 days of culture,totally inactive; also recorded: completely inactive
